Data taken from patent US12077503B2, “Substituted cyclic amides and their use as herbicides” (FMC CORPORATION, priority 2015, dated 2024).

Tests used:
Type in all cases: in vivo
[1] = system: ivy-leaved morning glory (Ipomoea hederacea); assay: Test G Post-Emergence Protocol; settings: Ipomoea, post-emergence, 312 h, read-out: Morningglory, Ivy-leaved damage rating; for pest or weed control at 15.625 g/ha: 15.625 g ai/ha, evaluated after 13 days (100=total damage to plant; 0=no damage to plant); for pest or weed control at 62.5 g/ha: 62.5 g ai/ha; for pest or weed control at 62.5 g/ha / pest or weed control at 250 g/ha: evaluated after 13 days, 100=total damage to plant, 0=no damage to plant; for pest or weed control at 250 g/ha: 250 g ai/ha
In short: (§1)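 Damage was rated 13 days after treatment from 0 (none) to 100 (plant killed). Compound was applied as a spray at 15.625, 62.5 or 250 g/ha in 50:50 acetone/water containing 0.5% Tween 20, onto 8-day-old potted plants kept in a glasshouse (24/16 °C, 14 h light, 65% humidity).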

[2] = system: barnyardgrass (Echinochloa crus-galli); assay: Test G Post-Emergence Protocol; settings: Echinochloa crus-galli, post-emergence, 312 h, read-out: Barnyardgrass damage rating; for pest or weed control at 15.625 g/ha: 15.625 g ai/ha, evaluated after 13 days (100=total damage to plant; 0=no damage to plant); for pest or weed control at 62.5 g/ha: 62.5 g ai/ha; for pest or weed control at 62.5 g/ha / pest or weed control at 250 g/ha: evaluated after 13 days, 100=total damage to plant, 0=no damage to plant; for pest or weed control at 250 g/ha: 250 g ai/ha
In short: as §1

[3] = system: giant foxtail (Setaria faberi); assay: Test G Post-Emergence Protocol; settings: Setaria faberi, post-emergence, 312 h, read-out: Foxtail, Giant damage rating; for pest or weed control at 15.625 g/ha: 15.625 g ai/ha, evaluated after 13 days (100=total damage to plant; 0=no damage to plant); for pest or weed control at 62.5 g/ha: 62.5 g ai/ha; for pest or weed control at 62.5 g/ha / pest or weed control at 250 g/ha: evaluated after 13 days, 100=total damage to plant, 0=no damage to plant; for pest or weed control at 250 g/ha: 250 g ai/ha
In short: as §1

[4] = system: velvetleaf (Abutilon theophrasti); assay: Test G Post-Emergence Protocol; settings: Abutilon theophrasti, post-emergence, 312 h, read-out: Velvetleaf damage rating; for pest or weed control at 15.625 g/ha: 15.625 g ai/ha, evaluated after 13 days (100=total damage to plant; 0=no damage to plant); for pest or weed control at 62.5 g/ha: 62.5 g ai/ha; for pest or weed control at 62.5 g/ha / pest or weed control at 250 g/ha: evaluated after 13 days, 100=total damage to plant, 0=no damage to plant; for pest or weed control at 250 g/ha: 250 g ai/ha
In short: as §1

[5] = system: corn (Zea mays); assay: Test G Post-Emergence Protocol; settings: Zea mays, post-emergence, 312 h, read-out: Corn damage rating; for plant injury at 15.625 g/ha: 15.625 g ai/ha, evaluated after 13 days (100=total damage to plant; 0=no damage to plant); for plant injury at 62.5 g/ha: 62.5 g ai/ha; for plant injury at 62.5 g/ha / plant injury at 250 g/ha: evaluated after 13 days, 100=total damage to plant, 0=no damage to plant; for plant injury at 250 g/ha: 250 g ai/ha
In short: as §1

[6] = system: redroot pigweed (Amaranthus retroflexus); assay: Test G Post-Emergence Protocol; settings: Amaranthus retroflexus, post-emergence, 312 h, read-out: Pigweed, Redroot damage rating; for pest or weed control at 15.625 g/ha: 15.625 g ai/ha, evaluated after 13 days (100=total damage to plant; 0=no damage to plant); for pest or weed control at 62.5 g/ha: 62.5 g ai/ha; for pest or weed control at 62.5 g/ha / pest or weed control at 250 g/ha: evaluated after 13 days, 100=total damage to plant, 0=no damage to plant; for pest or weed control at 250 g/ha: 250 g ai/ha
In short: as §1

[7] = system: ivy-leaved morning glory (Ipomoea hederacea); assay: Test G Pre-Emergence Protocol; settings: Ipomoea, pre-emergence, 312 h, evaluated after 13 days; for pest or weed control at 15.625 g/ha: 15.625 g ai/ha; for pest or weed control at 15.625 g/ha / pest or weed control at 250 g/ha: read-out: Morningglory, Ivy-leaved damage rating (100=total damage to plant; 0=no damage to plant); for pest or weed control at 62.5 g/ha: 62.5 g ai/ha, 100=total damage to plant, 0=no damage to plant, read-out: Morningglory, Ivy-leaved damage rating; for pest or weed control at 250 g/ha: 250 g ai/ha
In short: (§2)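 Scores are visual damage ratings from 0 (no damage) to 100 (total plant kill), taken 13 days after treatment. Compound was sprayed one day post-sowing at 15.625, 62.5 or 250 g/ha in 50:50 acetone/water with 0.5% Tween 20.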

[8] = system: barnyardgrass (Echinochloa crus-galli); assay: Test G Pre-Emergence Protocol; settings: Echinochloa crus-galli, pre-emergence, 312 h, evaluated after 13 days; for pest or weed control at 15.625 g/ha: 15.625 g ai/ha; for pest or weed control at 15.625 g/ha / pest or weed control at 250 g/ha: read-out: Barnyardgrass damage rating (100=total damage to plant; 0=no damage to plant); for pest or weed control at 62.5 g/ha: 62.5 g ai/ha, 100=total damage to plant, 0=no damage to plant, read-out: Barnyardgrass damage rating; for pest or weed control at 250 g/ha: 250 g ai/ha
In short: as §2

[9] = system: giant foxtail (Setaria faberi); assay: Test G Pre-Emergence Protocol; settings: Setaria faberi, pre-emergence, 312 h, evaluated after 13 days; for pest or weed control at 15.625 g/ha: 15.625 g ai/ha; for pest or weed control at 15.625 g/ha / pest or weed control at 250 g/ha: read-out: Foxtail, Giant damage rating (100=total damage to plant; 0=no damage to plant); for pest or weed control at 62.5 g/ha: 62.5 g ai/ha, 100=total damage to plant, 0=no damage to plant, read-out: Foxtail, Giant damage rating; for pest or weed control at 250 g/ha: 250 g ai/ha
In short: as §2

[10] = system: velvetleaf (Abutilon theophrasti); assay: Test G Pre-Emergence Protocol; settings: Abutilon theophrasti, pre-emergence, 312 h, evaluated after 13 days; for pest or weed control at 15.625 g/ha: 15.625 g ai/ha; for pest or weed control at 15.625 g/ha / pest or weed control at 250 g/ha: read-out: Velvetleaf damage rating (100=total damage to plant; 0=no damage to plant); for pest or weed control at 62.5 g/ha: 62.5 g ai/ha, 100=total damage to plant, 0=no damage to plant, read-out: Velvetleaf damage rating; for pest or weed control at 250 g/ha: 250 g ai/ha
In short: as §2

[11] = system: corn (Zea mays); assay: Test G Pre-Emergence Protocol; settings: Zea mays, pre-emergence, 312 h, evaluated after 13 days; for plant injury at 15.625 g/ha: 15.625 g ai/ha; for plant injury at 15.625 g/ha / plant injury at 250 g/ha: read-out: Corn damage rating (100=total damage to plant; 0=no damage to plant); for plant injury at 62.5 g/ha: 62.5 g ai/ha, 100=total damage to plant, 0=no damage to plant, read-out: Corn damage rating; for plant injury at 250 g/ha: 250 g ai/ha
In short: as §2

[12] = system: redroot pigweed (Amaranthus retroflexus); assay: Test G Pre-Emergence Protocol; settings: Amaranthus retroflexus, pre-emergence, 312 h, evaluated after 13 days; for pest or weed control at 15.625 g/ha: 15.625 g ai/ha; for pest or weed control at 15.625 g/ha / pest or weed control at 250 g/ha: read-out: Pigweed, Redroot damage rating (100=total damage to plant; 0=no damage to plant); for pest or weed control at 62.5 g/ha: 62.5 g ai/ha, 100=total damage to plant, 0=no damage to plant, read-out: Pigweed, Redroot damage rating; for pest or weed control at 250 g/ha: 250 g ai/ha
In short: as §2

CN1CC(c2cc(F)cc(OCC(F)(F)F)c2)C(C(=O)Nc2cccc(F)c2F)C1=O (centres unmarked) [Compound 1698]
pest or weed control at 15.625 g/ha [1]: 10%
pest or weed control at 62.5 g/ha [1]: 70%
pest or weed control at 250 g/ha [1]: 70%
pest or weed control at 15.625 g/ha [2]: 60%
pest or weed control at 62.5 g/ha [2]: 80%
pest or weed control at 250 g/ha [2]: 80%
pest or weed control at 15.625 g/ha [3]: 80%
pest or weed control at 62.5 g/ha [3]: 80%
pest or weed control at 250 g/ha [3]: 80%
pest or weed control at 15.625 g/ha [4]: 0%
pest or weed control at 62.5 g/ha [4]: 10%
pest or weed control at 250 g/ha [4]: 50%
plant injury at 15.625 g/ha [5]: 20%
plant injury at 62.5 g/ha [5]: 70%
plant injury at 250 g/ha [5]: 70%
pest or weed control at 15.625 g/ha [6]: 20%
pest or weed control at 62.5 g/ha [6]: 30%
pest or weed control at 250 g/ha [6]: 60%
pest or weed control at 15.625 g/ha [7]: 10%
pest or weed control at 62.5 g/ha [7]: 0%
pest or weed control at 250 g/ha [7]: 20%
pest or weed control at 15.625 g/ha [8]: 60%
pest or weed control at 62.5 g/ha [8]: 70%
pest or weed control at 250 g/ha [8]: 80%
pest or weed control at 15.625 g/ha [9]: 70%
pest or weed control at 62.5 g/ha [9]: 70%
pest or weed control at 250 g/ha [9]: 90%
pest or weed control at 15.625 g/ha [10]: 0%
pest or weed control at 62.5 g/ha [10]: 10%
pest or weed control at 250 g/ha [10]: 20%
plant injury at 15.625 g/ha [11]: 0%
plant injury at 62.5 g/ha [11]: 30%
plant injury at 250 g/ha [11]: 70%
pest or weed control at 15.625 g/ha [12]: 0%
pest or weed control at 62.5 g/ha [12]: 10%
pest or weed control at 250 g/ha [12]: 40%

Cc1cc(C2CN(C)C(=O)C2C(=O)Nc2cccc(F)c2F)cc(C)c1Cl (centres unmarked) [Compound 1700]
pest or weed control at 15.625 g/ha [1]: 20%
pest or weed control at 62.5 g/ha [1]: 20%
pest or weed control at 250 g/ha [1]: 60%
pest or weed control at 15.625 g/ha [2]: 20%
pest or weed control at 62.5 g/ha [2]: 50%
pest or weed control at 250 g/ha [2]: 70%
pest or weed control at 15.625 g/ha [3]: 40%
pest or weed control at 62.5 g/ha [3]: 60%
pest or weed control at 250 g/ha [3]: 70%
pest or weed control at 15.625 g/ha [4]: 0%
pest or weed control at 62.5 g/ha [4]: 0%
pest or weed control at 250 g/ha [4]: 0%
plant injury at 15.625 g/ha [5]: 30%
plant injury at 62.5 g/ha [5]: 30%
plant injury at 250 g/ha [5]: 40%
pest or weed control at 15.625 g/ha [6]: 0%
pest or weed control at 62.5 g/ha [6]: 0%
pest or weed control at 250 g/ha [6]: 0%
pest or weed control at 62.5 g/ha [7]: 10%
pest or weed control at 250 g/ha [7]: 20%
pest or weed control at 15.625 g/ha [8]: 20%
pest or weed control at 62.5 g/ha [8]: 50%
pest or weed control at 250 g/ha [8]: 70%
pest or weed control at 15.625 g/ha [9]: 40%
pest or weed control at 62.5 g/ha [9]: 80%
pest or weed control at 250 g/ha [9]: 90%
pest or weed control at 15.625 g/ha [10]: 0%
pest or weed control at 62.5 g/ha [10]: 0%
pest or weed control at 250 g/ha [10]: 0%
plant injury at 15.625 g/ha [11]: 0%
plant injury at 62.5 g/ha [11]: 0%
plant injury at 250 g/ha [11]: 30%
pest or weed control at 15.625 g/ha [12]: 0%
pest or weed control at 62.5 g/ha [12]: 0%
pest or weed control at 250 g/ha [12]: 0%

COc1cc(C2CN(C)C(=O)C2C(=O)Nc2cccc(F)c2F)cc(Cl)c1OC (centres unmarked) [Compound 1704]
pest or weed control at 15.625 g/ha [1]: 30%
pest or weed control at 62.5 g/ha [1]: 20%
pest or weed control at 250 g/ha [1]: 70%
pest or weed control at 15.625 g/ha [2]: 40%
pest or weed control at 62.5 g/ha [2]: 70%
pest or weed control at 250 g/ha [2]: 80%
pest or weed control at 15.625 g/ha [3]: 70%
pest or weed control at 62.5 g/ha [3]: 80%
pest or weed control at 250 g/ha [3]: 80%
pest or weed control at 15.625 g/ha [4]: 0%
pest or weed control at 62.5 g/ha [4]: 0%
pest or weed control at 250 g/ha [4]: 20%
plant injury at 15.625 g/ha [5]: 0%
plant injury at 62.5 g/ha [5]: 20%
plant injury at 250 g/ha [5]: 80%
pest or weed control at 15.625 g/ha [6]: 0%
pest or weed control at 62.5 g/ha [6]: 10%
pest or weed control at 250 g/ha [6]: 10%
pest or weed control at 15.625 g/ha [7]: 0%
pest or weed control at 62.5 g/ha [7]: 0%
pest or weed control at 250 g/ha [7]: 30%
pest or weed control at 15.625 g/ha [8]: 40%
pest or weed control at 62.5 g/ha [8]: 70%
pest or weed control at 250 g/ha [8]: 80%
pest or weed control at 15.625 g/ha [9]: 50%
pest or weed control at 62.5 g/ha [9]: 80%
pest or weed control at 250 g/ha [9]: 80%
pest or weed control at 15.625 g/ha [10]: 0%
pest or weed control at 62.5 g/ha [10]: 0%
pest or weed control at 250 g/ha [10]: 10%
plant injury at 15.625 g/ha [11]: 0%
plant injury at 62.5 g/ha [11]: 50%
plant injury at 250 g/ha [11]: 80%
pest or weed control at 15.625 g/ha [12]: 0%
pest or weed control at 62.5 g/ha [12]: 20%
pest or weed control at 250 g/ha [12]: 0%
